What was measured:
Assay type in all cases: cell-based, human
NCI-H23 = test: NCI screening panel, NCI-H23 (Non-Small Cell Lung Cancer)
Protocol: (§1) Representative compounds of Formula I were screened using the National Cancer Institute (NCI) screening panel, which consists of a panel of human tumor cell lines, representing leukemia, melanoma, and cancers of the lung, colon, ovary, breast, prostate and renal system.
(§2) After 24 h, two plates of each cell line are fixed in situ with TCA, to represent a measurement of the cell population for each cell line at the time of drug addition (Tz). Experimental drugs are solubilised in dimethyl sulfoxide at 400-fold the desired final maximum test concentration and stored frozen prior to use. At the time of drug addition, an aliquot of frozen concentrate is thawed and diluted to twice the desired final maximum test concentration with complete medium containing 50 μg/mL gentamicin. Additional four, 10-fold or ½ log serial dilutions are made to provide a total of five drug concentrations plus control. Aliquots of 100 μl of these different drug dilutions are added to the appropriate microtiter wells already containing 100 μl of medium, resulting in the required final drug concentrations.
(§3) Following drug addition, the plates are incubated for an additional 48 h at 37° C., 5% CO2, 95% air, and 100% relative humidity. For adherent cells, the assay is terminated by the addition of cold TCA (trichloroacetic acid). Cells are fixed in situ by the gentle addition of 50 μl of cold 50% (w/v) TCA (final concentration, 10% TCA) and incubated for 60 minutes at 4° C. The supernatant is discarded, and the plates are washed five times with tap water and air dried. Sulforhodamine B (SRB) solution (100 μl) at 0.4% (w/v) in 1% acetic acid is added to each well, and plates are incubated for 10 minutes at room temperature. After staining, unbound dye is removed by washing five times with 1% acetic acid and the plates are air dried. Bound stain is subsequently solubilised with 10 mM trizma base, and the absorbance is read on an automated plate reader at a wavelength of 515 nm. For suspension cells, the methodology is the same except that the assay is terminated by fixing settled cells at the bottom of the wells by gently adding 50 μl of 80% TCA (final concentration, 16% TCA). Using the seven absorbance measurements [time zero, (Tz), control growth, (C), and test growth in the presence of drug at the five concentration levels (Ti)], the percentage growth is calculated at each of the drug concentrations levels. Percentage growth inhibition is calculated as: [(Ti−Tz)/(C−Tz)]×100 for concentrations for which Ti>/=Tz and [(Ti−Tz)/Tz]×100 for concentrations for which Ti<Tz.
(§4) Three dose response parameters are calculated for each experimental agent. Growth inhibition of 50% (GI50) is calculated from [(Ti−Tz)/(C−Tz)]×100=50, which is the drug concentration resulting in a 50% reduction in the net protein increase (as measured by SRB staining) in control cells during the drug incubation. The drug concentration resulting in total growth inhibition (TGI) is calculated from Ti=Tz. The LC50 (concentration of drug resulting in a 50% reduction in the measured protein at the end of the drug treatment as compared to that at the beginning) indicating a net loss of cells following treatment is calculated from [(Ti−Tz)/Tz]×100=−50. Values are calculated for each of these three parameters if the level of activity is reached. However, if the effect is not reached or is exceeded, the value for that parameter is expressed as greater or less than the maximum or minimum concentration tested.

UACC-257 = test: NCI screening panel, UACC-257 (Melanoma)
Protocol: as §1, §2, §3, §4

SF-539 = test: NCI screening panel, SF-539 (CNS Cancer)
Protocol: as §1, §2, §3, §4

HCT-15 = test: NCI screening panel, HCT-15 (Colon Cancer)
Protocol: as §1, §2, §3, §4

RPMI-8226 = test: NCI screening panel, RPMI-8226 (Leukemia)
Protocol: as §1, §2, §3, §4

SF-268 = test: NCI screening panel, SF-268 (CNS Cancer)
Protocol: as §1, §2, §3, §4

UACC-62 = test: NCI screening panel, UACC-62 (Melanoma)
Protocol: as §1, §2, §3, §4

LOX IMVI = test: NCI screening panel, LOX IMVI (Melanoma)
Protocol: as §1, §2, §3, §4

SN12C = test: NCI screening panel, SN12C (Renal Cancer)
Protocol: as §1, §2, §3, §4

SK-MEL-2 = test: NCI screening panel, SK-MEL-2 (Melanoma)
Protocol: as §1, §2, §3, §4

SR = test: NCI screening panel, SR (Leukemia)
Protocol: as §1, §2, §3, §4

HCT-116 = test: NCI screening panel, HCT-116 (Colon Cancer)
Protocol: as §1, §2, §3, §4

M14 = test: NCI screening panel, M14 (Melanoma)
Protocol: as §1, §2, §3, §4

BT-549 = test: NCI screening panel, BT-549 (Breast Cancer)
Protocol: as §1, §2, §3, §4

U251 = test: NCI screening panel, U251 (CNS Cancer)
Protocol: as §1, §2, §3, §4

NCI-H522 = test: NCI screening panel, NCI-H522 (Non-Small Cell Lung Cancer)
Protocol: as §1, §2, §3, §4

A549/ATCC = test: NCI screening panel, A549/ATCC (Non-Small Cell Lung Cancer)
Protocol: as §1, §2, §3, §4

HCC-2998 = test: NCI screening panel, HCC-2998 (Colon Cancer)
Protocol: as §1, §2, §3, §4

SK-OV-3 = test: NCI screening panel, SK-OV-3 (Ovarian Cancer)
Protocol: as §1, §2, §3, §4

Molecule CC(C)C[C@H](NC(=O)[C@H](COC(F)F)NC(=O)CN1CCOCC1)C(=O)N[C@@H](COC(F)F)C(=O)N[C@@H](Cc1ccccc1)C(=O)[C@@]1(C)CO1 [Example 4, (2S)-N-[(1S)-2-[[(1S)-1-benzyl-2-[(2R)-2-methyloxiran-2-yl]-2-oxo-ethyl]amino]-1-(difluoromethoxymethyl)-2-oxo-ethyl]-2-[[(2S)-3-(difluoromethoxy)-2-[(2-mor-pholinoacetyl)amino]propanoyl]amino]-4 methyl-pentanamide] has a Log10GI50 (NCI-H23) of −7.51, a Log10LC50 (NCI-H23) of −4.31 and a Log10TGI50 (NCI-H23) of −6.63. The Log10GI50 (UACC-257) was −6.71, the Log10LC50 (UACC-257) was −4.14 and the Log10TGI50 (UACC-257) was −6.11. It also gave a Log10GI50 (SF-539) of −7.64, a Log10LC50 (SF-539) of −5.26 and a Log10TGI50 (SF-539) of −7.22. For the same molecule, the Log10GI50 (HCT-15) was −5.91, the Log10LC50 (HCT-15) was greater than −4.00 and the Log10TGI50 (HCT-15) was −4.62. It also gave a Log10GI50 (RPMI-8226) of −7.51, a Log10LC50 (RPMI-8226) greater than −4.00 and a Log10TGI50 (RPMI-8226) of −6.54. For the same molecule, the Log10GI50 (SF-268) was −7.58, the Log10LC50 (SF-268) was greater than −4.00 and the Log10TGI50 (SF-268) was −6.82. It also gave a Log10GI50 (UACC-62) of −7.39, a Log10LC50 (UACC-62) of −4.67 and a Log10TGI50 (UACC-62) of −6.59. It also gave a Log10GI50 (LOX IMVI) of −7.77, a Log10LC50 (LOX IMVI) of −7.06 and a Log10TGI50 (LOX IMVI) of −7.42. It also gave a Log10GI50 (SN12C) of −7.20, a Log10LC50 (SN12C) of −4.79 and a Log10TGI50 (SN12C) of −6.47. The Log10GI50 (SK-MEL-2) was −7.57, the Log10LC50 (SK-MEL-2) was greater than −4.00 and the Log10TGI50 (SK-MEL-2) was −6.86. For the same molecule, the Log10GI50 (SR) was −7.66, the Log10LC50 (SR) was greater than −4.00 and the Log10TGI50 (SR) was greater than −4.00. The Log10GI50 (HCT-116) was −7.70, the Log10LC50 (HCT-116) was −4.57 and the Log10TGI50 (HCT-116) was −6.98. The Log10GI50 (M14) was −6.97, the Log10LC50 (M14) was greater than −4.00 and the Log10TGI50 (M14) was −5.66. The Log10GI50 (BT-549) was −7.64, the Log10TGI50 (BT-549) was −6.91 and the Log10GI50 (U251) was −7.44. The Log10LC50 (U251) was −4.62, the Log10TGI50 (U251) was −6.48 and the Log10GI50 (NCI-H522) was −7.75. For the same molecule, the Log10LC50 (NCI-H522) was −6.06, the Log10TGI50 (NCI-H522) was −7.11 and the Log10GI50 (A549/ATCC) was −7.38. The Log10LC50 (A549/ATCC) was greater than −4.00, the Log10TGI50 (A549/ATCC) was −4.55 and the Log10GI50 (HCC-2998) was −7.29. The Log10LC50 (HCC-2998) was −6.30, the Log10TGI50 (HCC-2998) was −6.75 and the Log10GI50 (SK-OV-3) was −6.84. The Log10LC50 (SK-OV-3) was greater than −4.00 and the Log10TGI50 (SK-OV-3) was −6.02.
Molecule CC(C)C[C@H](NC(=O)[C@H](COC(F)F)NC(=O)[C@H](COC(F)F)NC(=O)[C@H](COC(F)F)NC(=O)CN1CCOCC1)C(=O)[C@@]1(C)CO1 [Example 17, (2S)-3-(difluoromethoxy)-N-[(1S)-1-(difluoromethoxymethyl)-2-[[(1S)-1-(difluoro-methoxymethyl)-2-[[(1S)-3-methyl-1-[(2R)-2-methyloxirane-2-carbonyl]butyl]amino]-2-oxo-ethyl]amino]-2-oxo-ethyl]-2-[(2-mor-pholinoacetyl)amino]-propanamide] has a Log10GI50 (NCI-H23) of −7.15, a Log10LC50 (NCI-H23) greater than −4.00 and a Log10TGI50 (NCI-H23) of −5.98. It also gave a Log10GI50 (UACC-257) of −6.45, a Log10LC50 (UACC-257) greater than −4.00 and a Log10TGI50 (UACC-257) of −5.56. It also gave a Log10GI50 (SF-539) of −7.38, a Log10TGI50 (SF-539) of −6.67 and a Log10GI50 (HCT-15) of −5.28. For the same molecule, the Log10LC50 (HCT-15) was greater than −4.00, the Log10TGI50 (HCT-15) was greater than −4.00 and the Log10GI50 (RPMI-8226) was −7.14. It also gave a Log10LC50 (RPMI-8226) greater than −4.00, a Log10TGI50 (RPMI-8226) of -6.15 and a Log10GI50 (SF-268) of −7.15. It also gave a Log10LC50 (SF-268) of −4.87, a Log10TGI50 (SF-268) of −6.47 and a Log10GI50 (UACC-62) of −7.14. For the same molecule, the Log10LC50 (UACC-62) was −5.39, the Log10TGI50 (UACC-62) was −6.42 and the Log10GI50 (LOX IMVI) was −7.36. For the same molecule, the Log10LC50 (LOX IMVI) was −6.36, the Log10TGI50 (LOX IMVI) was −6.81 and the Log10GI50 (SN12C) was −6.71. It also gave a Log10LC50 (SN12C) of −5.06, a Log10TGI50 (SN12C) of −6.08 and a Log10GI50 (SK-MEL-2) of −7.27. For the same molecule, the Log10LC50 (SK-MEL-2) was −5.76, the Log10TGI50 (SK-MEL-2) was −6.60 and the Log10GI50 (SR) was −7.27. It also gave a Log10TGI50 (SR) greater than −4.00, a Log10GI50 (HCT-116) of −7.45 and a Log10LC50 (HCT-116) of −4.50. It also gave a Log10TGI50 (HCT-116) of −6.60, a Log10GI50 (M14) of −6.59 and a Log10LC50 (M14) greater than −4.00. The Log10TGI50 (M14) was −5.41, the Log10GI50 (BT-549) was −7.11 and the Log10LC50 (BT-549) was greater than −4.00. It also gave a Log10TGI50 (BT-549) of −6.43, a Log10GI50 (U251) of −7.26 and a Log10LC50 (U251) of −5.25. For the same molecule, the Log10TGI50 (U251) was −6.32, the Log10GI50 (NCI-H522) was −7.40 and the Log10LC50 (NCI-H522) was −5.25. It also gave a Log10TGI50 (NCI-H522) of −6.64, a Log10GI50 (A549/ATCC) of −6.99 and a Log10LC50 (A549/ATCC) greater than −4.00. It also gave a Log10TGI50 (A549/ATCC) of −5.06, a Log10GI50 (HCC-2998) of −6.74 and a Log10LC50 (HCC-2998) of −6.19. It also gave a Log10TGI50 (HCC-2998) of −6.46, a Log10GI50 (SK-OV-3) of −6.26 and a Log10LC50 (SK-OV-3) greater than −4.00. The Log10TGI50 (SK-OV-3) was greater than −4.00.

Reference: patent US20150218212A1, “FLUORINATED EPOXYKETONE-BASED TETRAPEPTIDE COMPOUNDS AND USES THEREOF AS PROTEASOME INHIBITORS” (FLUORINOV PHARMA INC., priority 2012, published 2015)
